US10640507B2, “PBD antibacterial agents” (KING'S COLLEGE LONDON, priority 2015, dated 2020)
Where two headings read alike, the source gives them in different places.

What was measured:
[1] = tested on: A. baumannii - AYE; format: cell-based; details: drug at 4×MIC
Procedure: (§1) 1. Grow bacteria overnight.
(§2) 2. Subculture into an autoclaved conical flask containing 10 ml of TSB to an OD of 0.01 (˜1×10^7 Cfu/ml for KP-M6).
(§3) 4. Take aliquots (100 μl) at timepoints (0, 1, 2, 4, 6, 24 hours) and carry out a serial dilution in PBS (to remove drug and to dilute bacteria to countable numbers).
(§4) 5. Use the serial dilution to perform a Miles Misra—i.e. Add 3×10 μl spots of each dilution onto an agar plate. Incubate overnight and count colonies on spots in the morning.
(§5) 6. Control: Subculture bacteria alongside samples but with no antibiotic added. Take aliquots from this at every time point (0, 1, 2, 4, 6, 24 hours) and perform Miles Misra on these too (as detailed in points 4 and 5 above).
(§6) 7. After the first experiment, if the counts seen on Miles-Misra were zero, total viable counts were determined by spreading 200 μl in a streak down the centre of a TSB agar plate, waiting for the liquid to be absorbed and then spreading over the plate and checking for growth inhibition at the sight of the original streak.
(§7) 8. The compound is considered bactericidal if the inoculum was reduced >3 log10 CFU/ml and bacteriostatic if inoculum was reduced by 0-3 log10 CFU/ml.
(§8) Three measurements were taken for each compound at each time point. These measurements were averaged and the standard deviation was also calculated.

[2] = tested on: A. baumannii - NCTC13424; format: cell-based; details: drug at 4×MIC
Procedure: as §1, §2, §3, §4, §5, §6, §7, §8

[3] = tested on: K. pneumonia - NCTC 13438; format: cell-based; details: drug at 4×MIC
Procedure: as §1, §2, §3, §4, §5, §6, §7, §8

[4] = target: T1, S. aureus Topo IV (Staphylococcus aureus, UniProt P0C1S7+P0C1U9); test: Topo IV microplate assay; format: biochemical; details: agent 10-75 μM, FIG. 5
T1 construct: purchased Inspiralis (Norwich, UK) SATRIV01
Procedure: (§9) The effect of the antimicrobial agents on gyrase was assessed using E. coli gyrase microplate assay kit (# TRG01) and with S. aureus gyrase microplate assay kit (# SATRG01). The effect of topoisomerase IV using was assessed using E. coli Topo IV microplate assay kit (# TRIV01) and with the S. aureus Topo IV microplate assay kit (# SATRIV01). All of these assay kits were obtained from Inspiralis (Norwich, UK). These assay kits are supplied with the relevant enzyme, substrate and buffers.
(§10) 1. Rehydrate wells with 3×200 μl Wash buffer (diluted from 20× stock with ultra-pure water).
(§11) 2. Immobilise 100 μl of 500 nM TF01 oligo in each well (5 μl of 10 μM TF01 oligo in 95 μl wash buffer).
(§12) 3. Incubate 5 minutes at room temperature.
(§13) 4. Wash off excess oligo with 3×200 μl Wash buffer.
(§14) 5. Incubate 2U (0.4 μl stock) of gyrase with 0.75 μg of relaxed pN01 in a reaction volume of 30 μl at 37° C. for 30 minutes in assay buffer—This is the part agent is added therefore the reaction volume is adjusted to account for this.
(§15) 6. Add 100 μl TF buffer (diluted from 20× stock) to well and incubate for a further 30 minutes at room temperature to allow triplex formation.
(§16) 7. Remove liquid from well and wash with 3×200 μl TF buffer to wash away unbound plasmid.
(§17) 8. Stain with DNA detection dye (diluted to ix with T10 buffer). Add 200 μl per well and incubate for 10-20 minutes at room temperature.
(§18) 9. Mix well and read in fluorescence plate reader Excitation wavelength: 495 nm; Emission wavelength: 537 nm. Use 485/520 filters in plate reader in 231.
(§19) 10. If required 10 μl of sample can be used to run on 1% agarose gel.
(§20) As the reaction volume is 30 μl make concentrations at 30× greater than required so 1 μl of the appropriate concentration can be added to the reaction. For each agent concentrations from a range of 10-75 μM.
(§21) The procedure for assessing effect of the agents on topoisomerase IV was the same as for the gyrase apart from the following changes; 1.5 U of topoisomerase IV was used in place of gyrase and supercoiled pN01 instead of relaxed pN01 was used in step 5. Results obtained were normalised using the following equation: […]
(§22) Xmin—minima among all data points
(§23) Xmax—maxima among all data points
(§24) Xi0-1—data point normalised between 0-1

[5] = target: T2, E. coli Topo IV (Escherichia coli, UniProt P0AFI2+P20083); test: Topo IV microplate assay; format: biochemical; details: agent 10-75 μM, FIG. 5
T2 construct: purchased Inspiralis (Norwich, UK) TRIV01
T2 sequence (P20083 whole entry): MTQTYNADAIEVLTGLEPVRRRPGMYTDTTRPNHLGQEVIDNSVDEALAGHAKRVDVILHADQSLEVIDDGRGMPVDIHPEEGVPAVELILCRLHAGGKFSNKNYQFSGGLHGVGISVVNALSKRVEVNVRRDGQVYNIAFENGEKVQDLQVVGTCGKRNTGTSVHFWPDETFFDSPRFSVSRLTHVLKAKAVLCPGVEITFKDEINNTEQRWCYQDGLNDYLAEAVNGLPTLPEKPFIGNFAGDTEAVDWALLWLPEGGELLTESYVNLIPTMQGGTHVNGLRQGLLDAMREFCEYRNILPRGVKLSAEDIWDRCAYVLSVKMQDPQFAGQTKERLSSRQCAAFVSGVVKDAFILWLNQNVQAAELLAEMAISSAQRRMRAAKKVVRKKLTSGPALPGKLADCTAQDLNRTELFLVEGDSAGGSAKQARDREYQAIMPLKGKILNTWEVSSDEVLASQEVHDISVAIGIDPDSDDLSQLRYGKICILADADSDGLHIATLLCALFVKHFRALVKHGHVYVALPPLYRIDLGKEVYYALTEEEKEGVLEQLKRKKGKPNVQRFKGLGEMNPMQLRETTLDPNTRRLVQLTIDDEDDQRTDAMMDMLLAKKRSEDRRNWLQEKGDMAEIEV
T2 sequence (P0AFI2 whole entry): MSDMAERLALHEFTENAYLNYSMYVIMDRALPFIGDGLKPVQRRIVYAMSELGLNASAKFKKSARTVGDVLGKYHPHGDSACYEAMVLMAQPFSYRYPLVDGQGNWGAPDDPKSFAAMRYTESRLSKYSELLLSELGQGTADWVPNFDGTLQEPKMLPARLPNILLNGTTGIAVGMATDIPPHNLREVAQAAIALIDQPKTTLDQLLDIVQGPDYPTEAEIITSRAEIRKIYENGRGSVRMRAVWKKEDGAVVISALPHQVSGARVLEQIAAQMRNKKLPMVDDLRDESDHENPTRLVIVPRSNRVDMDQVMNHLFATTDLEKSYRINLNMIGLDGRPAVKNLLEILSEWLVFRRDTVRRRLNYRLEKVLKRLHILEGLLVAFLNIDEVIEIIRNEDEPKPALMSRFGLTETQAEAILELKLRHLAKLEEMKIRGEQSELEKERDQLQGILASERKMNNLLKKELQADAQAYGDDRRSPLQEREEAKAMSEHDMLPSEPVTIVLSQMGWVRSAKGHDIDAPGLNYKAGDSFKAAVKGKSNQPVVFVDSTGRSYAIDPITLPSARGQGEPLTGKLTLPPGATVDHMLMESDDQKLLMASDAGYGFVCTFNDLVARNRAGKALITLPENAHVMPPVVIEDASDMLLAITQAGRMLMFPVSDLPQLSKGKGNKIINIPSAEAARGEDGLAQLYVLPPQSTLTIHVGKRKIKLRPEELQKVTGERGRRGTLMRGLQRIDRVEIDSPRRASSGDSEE
Procedure: as §9, §10, §11, §12, §13, §14, §15, §16, §17, §18, §19, §20, §21, §22, §23, §24

[6] = target: T3, S. aureus gyrase (Staphylococcus aureus, UniProt P0A0K8+P20831); test: Gyrase microplate assay; format: biochemical; details: agent 10-75 μM, FIG. 6
T3 construct: purchased Inspiralis (Norwich, UK) SATRG01
T3 sequence (P0A0K8 whole entry): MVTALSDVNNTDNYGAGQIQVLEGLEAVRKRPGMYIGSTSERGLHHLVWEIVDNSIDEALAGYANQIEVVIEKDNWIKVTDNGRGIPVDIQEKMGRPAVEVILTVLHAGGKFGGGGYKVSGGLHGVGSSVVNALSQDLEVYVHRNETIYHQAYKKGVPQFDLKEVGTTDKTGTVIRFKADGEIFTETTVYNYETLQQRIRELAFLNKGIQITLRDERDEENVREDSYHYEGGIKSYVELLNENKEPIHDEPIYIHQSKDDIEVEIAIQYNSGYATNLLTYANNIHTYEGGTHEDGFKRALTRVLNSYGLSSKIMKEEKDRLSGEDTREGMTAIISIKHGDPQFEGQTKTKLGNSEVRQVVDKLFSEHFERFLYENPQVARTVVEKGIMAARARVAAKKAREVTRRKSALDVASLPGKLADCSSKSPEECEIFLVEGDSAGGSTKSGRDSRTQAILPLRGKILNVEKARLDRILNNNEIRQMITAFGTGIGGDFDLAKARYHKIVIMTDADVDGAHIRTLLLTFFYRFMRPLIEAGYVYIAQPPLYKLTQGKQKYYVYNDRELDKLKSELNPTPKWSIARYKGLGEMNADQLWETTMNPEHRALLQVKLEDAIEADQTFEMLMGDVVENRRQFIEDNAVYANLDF
T3 sequence (P20831 whole entry): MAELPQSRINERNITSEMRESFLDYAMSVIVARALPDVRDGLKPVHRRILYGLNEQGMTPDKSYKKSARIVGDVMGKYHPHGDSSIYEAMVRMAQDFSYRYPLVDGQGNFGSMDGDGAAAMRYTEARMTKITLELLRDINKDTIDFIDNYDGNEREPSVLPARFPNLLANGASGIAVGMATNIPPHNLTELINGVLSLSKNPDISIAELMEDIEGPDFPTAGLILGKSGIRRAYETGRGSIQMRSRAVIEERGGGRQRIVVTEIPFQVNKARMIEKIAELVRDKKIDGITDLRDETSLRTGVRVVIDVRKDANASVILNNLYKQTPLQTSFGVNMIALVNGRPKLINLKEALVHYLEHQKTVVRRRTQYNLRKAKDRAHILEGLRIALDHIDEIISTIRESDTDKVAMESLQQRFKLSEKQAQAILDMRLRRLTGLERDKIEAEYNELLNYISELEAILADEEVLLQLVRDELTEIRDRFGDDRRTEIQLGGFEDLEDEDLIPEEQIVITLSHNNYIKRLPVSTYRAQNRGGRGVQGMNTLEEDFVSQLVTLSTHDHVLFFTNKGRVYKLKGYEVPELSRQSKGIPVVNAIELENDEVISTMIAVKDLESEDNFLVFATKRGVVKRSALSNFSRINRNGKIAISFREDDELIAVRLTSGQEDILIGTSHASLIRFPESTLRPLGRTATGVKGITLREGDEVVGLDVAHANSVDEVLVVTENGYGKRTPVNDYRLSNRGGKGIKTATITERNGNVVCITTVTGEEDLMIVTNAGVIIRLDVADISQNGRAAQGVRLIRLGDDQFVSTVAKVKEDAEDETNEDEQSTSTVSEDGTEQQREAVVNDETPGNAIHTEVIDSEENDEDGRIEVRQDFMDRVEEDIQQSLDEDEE
Procedure: as §9, §10, §11, §12, §13, §14, §15, §16, §17, §18, §19, §20, §22, §23, §24

[7] = target: T4, E. coli gyrase (Escherichia coli, UniProt P0AES4+P0AES6); test: Gyrase microplate assay; format: biochemical; details: agent 10-75 μM, FIG. 6
T4 construct: purchased Inspiralis (Norwich, UK) TRG01
T4 sequence (P0AES4 whole entry, one chain of several): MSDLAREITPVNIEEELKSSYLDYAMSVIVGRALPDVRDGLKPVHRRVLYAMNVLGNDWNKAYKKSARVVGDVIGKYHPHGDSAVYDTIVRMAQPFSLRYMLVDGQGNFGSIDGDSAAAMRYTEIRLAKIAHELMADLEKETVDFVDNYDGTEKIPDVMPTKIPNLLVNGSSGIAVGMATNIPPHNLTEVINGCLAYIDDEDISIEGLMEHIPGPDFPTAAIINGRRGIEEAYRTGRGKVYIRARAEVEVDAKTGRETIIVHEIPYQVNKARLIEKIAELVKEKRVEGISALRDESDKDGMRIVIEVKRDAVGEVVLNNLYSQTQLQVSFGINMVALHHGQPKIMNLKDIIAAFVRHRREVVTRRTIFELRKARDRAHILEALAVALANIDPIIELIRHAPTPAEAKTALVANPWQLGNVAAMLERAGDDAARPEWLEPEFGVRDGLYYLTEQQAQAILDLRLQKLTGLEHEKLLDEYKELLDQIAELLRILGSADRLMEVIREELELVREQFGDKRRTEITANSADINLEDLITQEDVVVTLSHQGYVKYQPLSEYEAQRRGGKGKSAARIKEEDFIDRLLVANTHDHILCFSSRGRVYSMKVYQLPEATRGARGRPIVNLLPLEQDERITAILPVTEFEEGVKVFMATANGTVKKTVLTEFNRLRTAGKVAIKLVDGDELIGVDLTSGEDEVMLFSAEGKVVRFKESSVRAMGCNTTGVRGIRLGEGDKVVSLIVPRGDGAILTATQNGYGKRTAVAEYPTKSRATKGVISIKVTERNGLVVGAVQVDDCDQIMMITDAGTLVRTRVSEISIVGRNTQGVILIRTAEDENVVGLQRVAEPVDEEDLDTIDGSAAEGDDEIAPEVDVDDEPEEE
Procedure: as §9, §10, §11, §12, §13, §14, §15, §16, §17, §18, §19, §20, §22, §23, §24

## O=C(O)c1cn(C2CC2)c2cc(N3CCNCC3)c(F)cc2c1=O [CIP, ciprofloxacin, reference compound]
[1]; time-point 1 hours
  Average (CFU/ml): 2e+06 CFU/ml
  n = 1 (CFU/ml): 2.1e+06 CFU/ml
  n = 2 (CFU/ml): 1.9e+06 CFU/ml
[1]; time-point 2 hours
  Average (CFU/ml): 900000 CFU/ml
  n = 1 (CFU/ml): 1.2e+06 CFU/ml
  n = 2 (CFU/ml): 600000 CFU/ml
[1]; time-point 4 hours
  Average (CFU/ml): 750000 CFU/ml
  n = 1 (CFU/ml): 800000 CFU/ml
  n = 2 (CFU/ml): 700000 CFU/ml
[1]; time-point 6 hours
  Average (CFU/ml): 2.1e+06 CFU/ml
  n = 1 (CFU/ml): 2e+06 CFU/ml
  n = 2 (CFU/ml): 2.2e+06 CFU/ml
[1]; time-point 24 hours
  n = 1 (CFU/ml): 7e+08 CFU/ml
  n = 2 (CFU/ml): 1.4e+08 CFU/ml
[2]; time-point 1 hours
  Average (CFU/mL): 2.57e+06 CFU/mL
  n = 1 (CFU/mL): 2.5e+06 CFU/mL
  n = 2 (CFU/ml): 2.2e+06 CFU/ml
  n = 3 (CFU/mL): 3e+06 CFU/mL
[2]; time-point 2 hours
  Average (CFU/mL): 42000 CFU/mL
  n = 1 (CFU/mL): 80000 CFU/mL
  n = 2 (CFU/ml): 21000 CFU/ml
  n = 3 (CFU/mL): 25000 CFU/mL
[2]; time-point 4 hours
  Average (CFU/mL): 7330 CFU/mL
  n = 1 (CFU/mL): 12000 CFU/mL
  n = 2 (CFU/ml): 1000 CFU/ml
  n = 3 (CFU/mL): 9000 CFU/mL
[2]; time-point 6 hours
  Average (CFU/mL): 11200 CFU/mL
  n = 1 (CFU/mL): 10000 CFU/mL
  n = 2 (CFU/ml): 14300 CFU/ml
  n = 3 (CFU/mL): 9200 CFU/mL
[2]; time-point 24 hours
  n = 1 (CFU/mL): 3.6e+08 CFU/mL
  n = 2 (CFU/ml): 1.9e+09 CFU/ml
  n = 3 (CFU/mL): 2.75e+09 CFU/mL
[3]; time-point 1 hours
  n = 1 (CFU/ml): 1e+07 CFU/ml
  n = 2 (CFU/ml): 9e+06 CFU/ml
[3]; time-point 2 hours
  n = 1 (CFU/ml): 3.8e+07 CFU/ml
  n = 2 (CFU/ml): 3.7e+07 CFU/ml
[3]; time-point 4 hours
  Average (Log CFU/ml): 1.17E+09 Log CFU/ml
  n = 1 (CFU/ml): 1.5e+09 CFU/ml
  n = 2 (CFU/ml): 1e+09 CFU/ml
[3]; time-point 6 hours
  Average (Log CFU/ml): 3.07E+09 Log CFU/ml
  n = 1 (CFU/ml): 3.9e+09 CFU/ml
  n = 2 (CFU/ml): 2.5e+09 CFU/ml
[3]; time-point 24 hours
  Average (Log CFU/ml): 6.23E+09 Log CFU/ml
  n = 1 (CFU/ml): 6e+09 CFU/ml
  n = 2 (CFU/ml): 6.7e+09 CFU/ml
[4]
  effect on topoisomerase IV: inhibits
[5]
  effect on topoisomerase IV: inhibits
[6]
  effect on gyrase: inhibits
[7]
  effect on gyrase: inhibits

## COc1cc2c(cc1OCCCC(=O)Nc1cc(C(=O)Nc3ccc4oc(C(=O)N5CCSCC5)cc4c3)n(C)c1)N=C[C@@H]1CCCN1C2=O [PP-A148, (S)-4-(4-((7-methoxy-5-oxo-2,3,5,11a-tetrahydro-1H-benzo-[e]pyrrolo[1,2-a][1,4]diazepin-8-yl)oxy)butanamido)-1-methyl-N-(2-(thiomorpholine-4-carbonyl)benzofuran-5-yl)-1H-pyrrole-2-carboxamide]
[4]
  effect on topoisomerase IV: does not inhibit
[5]
  effect on topoisomerase IV: does not inhibit
[6]
  effect on gyrase: inhibits
[7]
  effect on gyrase: inhibits

## COc1cc2c(cc1OCCCC(=O)Nc1cc(C(=O)Nc3ccc4sc(C(=O)N(C)C)cc4c3)n(C)c1)N=C[C@@H]1CCCN1C2=O [KMR-14-33, (S)—N-(2-(dimethylcarbamoyl)benzo[b]thiophen-5-yl)-4-(4-((7-methoxy-5-oxo-2,3,5,11a-tetrahydro-1H-benzo[e]pyrrolo[1,2-a][1,4]-diazepin-8-yl)oxy)butanamido)-1-methyl-1H-pyrrole-2-carboxamide]
[1]; time-point 1 hours
  Average (Log CFU/ml): 0 CFU/ml
  n = 1 (Log CFU/ml): 0 CFU/ml
  n = 2 (Log CFU/ml): 0 CFU/ml
  n = 3 (Log CFU/ml): 0 CFU/ml
[1]; time-point 2 hours
  Average (Log CFU/ml): 0 CFU/ml
  n = 1 (Log CFU/ml): 0 CFU/ml
  n = 2 (Log CFU/ml): 0 CFU/ml
  n = 3 (Log CFU/ml): 0 CFU/ml
[1]; time-point 4 hours
  Average (Log CFU/ml): 29 CFU/ml
  n = 1 (Log CFU/ml): 0 CFU/ml
  n = 2 (Log CFU/ml): 0 CFU/ml
  n = 3 (Log CFU/ml): 85 CFU/ml
[1]; time-point 6 hours
  Average (Log CFU/ml): 1334 CFU/ml
  n = 1 (Log CFU/ml): 0 CFU/ml
  n = 2 (Log CFU/ml): 0 CFU/ml
  n = 3 (Log CFU/ml): 4000 CFU/ml
[1]; time-point 24 hours
  Average (Log CFU/ml): 6667.333 CFU/ml
  n = 1 (Log CFU/ml): 0 CFU/ml
  n = 2 (Log CFU/ml): 20000 CFU/ml
  n = 3 (Log CFU/ml): 0 CFU/ml
[2]; time-point 1 hours
  Average (Log CFU/ml): 1923.667 Log CFU/ml
  n = 1 (Log CFU/ml): 0 Log CFU/ml
  n = 2 (CFU/ml): 940 CFU/ml
  n = 3 (CFU/mL): 4830 CFU/mL
[2]; time-point 2 hours
  Average (Log CFU/ml): 0 Log CFU/ml
  n = 1 (Log CFU/ml): 0 Log CFU/ml
  n = 2 (Log CFU/ml): 0 Log CFU/ml
  n = 3 (Log CFU/ml): 0 Log CFU/ml
[2]; time-point 4 hours
  Average (Log CFU/ml): 0 Log CFU/ml
  n = 1 (Log CFU/ml): 0 Log CFU/ml
  n = 2 (Log CFU/ml): 0 Log CFU/ml
  n = 3 (Log CFU/ml): 0 Log CFU/ml
[2]; time-point 6 hours
  Average (Log CFU/ml): 0 Log CFU/ml
  n = 1 (Log CFU/ml): 0 Log CFU/ml
  n = 2 (Log CFU/ml): 0 Log CFU/ml
  n = 3 (Log CFU/ml): 0 Log CFU/ml
[2]; time-point 24 hours
  Average (Log CFU/ml): 2084 Log CFU/ml
  n = 1 (CFU/mL): 6250 CFU/mL
  n = 2 (Log CFU/ml): 0 Log CFU/ml
  n = 3 (Log CFU/ml): 0 Log CFU/ml
[3]; time-point 1 hours
  Average (Log CFU/ml): 1000000 CFU/ml
  n = 1 (Log CFU/ml): 1000000 CFU/ml
  n = 2 (Log CFU/ml): 2000000 CFU/ml
  n = 3 (Log CFU/ml): 1 CFU/ml
[3]; time-point 2 hours
  Average (Log CFU/ml): 34 CFU/ml
  n = 1 (Log CFU/ml): 0 CFU/ml
  n = 2 (Log CFU/ml): 100 CFU/ml
  n = 3 (Log CFU/ml): 0 CFU/ml
[3]; time-point 4 hours
  Average (Log CFU/ml): 0 CFU/ml
  n = 1 (Log CFU/ml): 0 CFU/ml
  n = 2 (Log CFU/ml): 0 CFU/ml
  n = 3 (Log CFU/ml): 0 CFU/ml
[3]; time-point 6 hours
  Average (Log CFU/ml): 0 CFU/ml
  n = 1 (Log CFU/ml): 0 CFU/ml
  n = 2 (Log CFU/ml): 0 CFU/ml
  n = 3 (Log CFU/ml): 0 CFU/ml
[3]; time-point 24 hours
  Average (Log CFU/ml): 0 CFU/ml
  n = 1 (Log CFU/ml): 0 CFU/ml
  n = 2 (Log CFU/ml): 0 CFU/ml
  n = 3 (Log CFU/ml): 0 CFU/ml
